Entries after “also recorded” stand apart in the source; their conditions may differ.
How the values were obtained:
S. aureus = S. aureus culture growth in the presence of 500 µM inhibitor; type: cell-based, Staphylococcus aureus; conditions: vs control cultures in 2.5% DMSO (Fig. 4)
[1] = target: Bacillus anthracis sortase enzyme (BaSrtA) (Bacillus anthracis, UniProt P0DPQ5); test: biochemical
Sequence of Bacillus anthracis sortase enzyme (BaSrtA) (P0DPQ5 57-210 limits assumed): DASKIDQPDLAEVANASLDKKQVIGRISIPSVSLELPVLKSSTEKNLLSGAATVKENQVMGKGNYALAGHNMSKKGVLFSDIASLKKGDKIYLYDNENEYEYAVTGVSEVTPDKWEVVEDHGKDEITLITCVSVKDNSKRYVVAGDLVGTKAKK

SMILES	effect on S. aureus growth (S. aureus)	IC50 [1] [µM]
CC1=NN(c2ccccc2)C(=S)/C1=C/Nc1ccccn1 [3–17]	do not substantially affect bacterial growth	–
CC1=NN(c2ccccc2)C(=S)/C1=C/Nc1ccc([N+](=O)[O-])cc1 [Compound 3]	only modestly perturb growth	–
COc1c(S)cnn(-c2cccc(Cl)c2)c1=O [Compound 2]	only modestly perturb growth	–
CC1=NN(c2ccccc2)C(=S)/C1=C/Nc1ccc(Br)cc1 [Compound 3-1]	do not substantially affect bacterial growth	–
CC1=NN(c2ccccc2)C(=S)/C1=C/Nc1ccc(/N=N/c2ccccc2)cc1 [3–9]	do not substantially affect bacterial growth; also recorded: non-bacteriocidal	–
CCSc1c(S)cnn(-c2ccccc2)c1=O [2–9]	do not significantly inhibit S. aureus growth; also recorded: not bactericidal; also recorded: do not impair microbial growth in cell culture	–
CC1=NN(c2ccccc2)C(=S)/C1=C/Nc1c(Br)cc(Br)cc1Br [3–12]	do not substantially affect bacterial growth; also recorded: no detrimental effect to bacterial viability; also recorded: non-bacteriocidal; also recorded: do not impair microbial growth in cell culture	1.7 ± 0.2
CCOc1cnn(-c2cccc(C)c2)c(=O)c1S [2–20]	do not significantly inhibit S. aureus growth; also recorded: not bactericidal	–
Cc1ccc(N2C(=O)/C(=C/c3cc([N+](=O)[O-])cc(Br)c3O)SC2=S)c(C)c1 [Compound 1]	toxic	–

Source: PMC2888031 (Bioorganic & medicinal chemistry, 2009)
